Test results from the NIST ThermoML archive (doi:10.1021/acs.jced.5b01023).
± gives the expanded uncertainty stated by the source.

Experiment: refractive index (Na D-line) (dimensionless); xn = mol fraction of the nth substance listed
Conditions: 101 kPa, Liquid, Standard Abbe refractometry

CC(=O)[O-].CCn1cc[n+](C)c1 [1-ethyl-3-methylimidazolium acetate] + CC(C)O
refractive index
Conditions | x1 = 0.1 | x1 = 0.2 | x1 = 0.3 | x1 = 0.4 | x1 = 0.5001 | x1 = 0.5998 | x1 = 0.7 | x1 = 0.7994 | x1 = 0.9 | x1 = 1
288.15 K | 1.40475 ± 0.004 | – | 1.43991 ± 0.004 | 1.45344 ± 0.004 | 1.4651 ± 0.004 | 1.47535 ± 0.004 | 1.48406 ± 0.004 | 1.4912 ± 0.004 | 1.49776 ± 0.004 | 1.50285 ± 0.004
298.15 K | 1.40107 ± 0.004 | – | 1.43669 ± 0.004 | 1.45075 ± 0.004 | 1.46242 ± 0.004 | 1.47243 ± 0.004 | 1.48131 ± 0.004 | 1.48861 ± 0.004 | 1.49526 ± 0.004 | 1.50069 ± 0.004
308.15 K | 1.39762 ± 0.004 | 1.42276 ± 0.004 | 1.4336 ± 0.004 | 1.4475 ± 0.004 | – | 1.46954 ± 0.004 | 1.4784 ± 0.004 | 1.48593 ± 0.004 | 1.49257 ± 0.004 | 1.49803 ± 0.004
318.15 K | 1.39423 ± 0.004 | 1.41947 ± 0.004 | 1.43066 ± 0.004 | 1.44471 ± 0.004 | 1.45641 ± 0.004 | 1.46689 ± 0.004 | 1.47561 ± 0.004 | 1.48324 ± 0.004 | 1.48986 ± 0.004 | 1.49527 ± 0.004
328.15 K | 1.39112 ± 0.004 | 1.41637 ± 0.004 | 1.42763 ± 0.004 | 1.44229 ± 0.004 | 1.45352 ± 0.004 | 1.46489 ± 0.004 | 1.47293 ± 0.004 | 1.48046 ± 0.004 | 1.48714 ± 0.004 | 1.49266 ± 0.004
338.15 K | 1.38677 ± 0.004 | 1.41309 ± 0.004 | 1.42464 ± 0.004 | 1.43908 ± 0.004 | 1.45107 ± 0.004 | 1.45943 ± 0.004 | 1.47054 ± 0.004 | 1.47775 ± 0.004 | 1.48466 ± 0.004 | 1.48995 ± 0.004

CC(=O)[O-].CCn1cc[n+](C)c1 [1-ethyl-3-methylimidazolium acetate] + CCCO
refractive index
Conditions | x1 = 0.1017 | x1 = 0.2004 | x1 = 0.3001 | x1 = 0.3998 | x1 = 0.4997 | x1 = 0.5996 | x1 = 0.6998 | x1 = 0.8002 | x1 = 0.8991 | x1 = 1
288.15 K | 1.41146 ± 0.00035 | 1.42938 ± 0.00036 | 1.44451 ± 0.00037 | 1.45711 ± 0.00039 | 1.46775 ± 0.00041 | 1.47687 ± 0.00043 | 1.485 ± 0.00045 | 1.49189 ± 0.00047 | 1.49712 ± 0.0005 | 1.50285 ± 0.00053
298.15 K | 1.40825 ± 0.00035 | 1.42622 ± 0.00036 | 1.44134 ± 0.00037 | 1.45401 ± 0.00039 | 1.46473 ± 0.00041 | 1.47411 ± 0.00043 | 1.48219 ± 0.00045 | 1.48919 ± 0.00047 | 1.49506 ± 0.0005 | 1.50069 ± 0.00053
308.15 K | 1.40453 ± 0.00035 | 1.42291 ± 0.00036 | 1.43827 ± 0.00037 | 1.45119 ± 0.00039 | 1.46189 ± 0.00041 | 1.47127 ± 0.00043 | 1.47942 ± 0.00045 | 1.48632 ± 0.00047 | 1.49221 ± 0.0005 | 1.49803 ± 0.00053
318.15 K | 1.40109 ± 0.00035 | 1.41973 ± 0.00036 | 1.43523 ± 0.00037 | 1.44803 ± 0.00039 | 1.45888 ± 0.00041 | 1.4683 ± 0.00043 | 1.47661 ± 0.00045 | 1.48365 ± 0.00047 | 1.48899 ± 0.0005 | 1.49527 ± 0.00053
328.15 K | 1.39753 ± 0.00035 | 1.41631 ± 0.00036 | 1.43208 ± 0.00037 | 1.44542 ± 0.00039 | 1.45593 ± 0.00041 | 1.4657 ± 0.00043 | 1.47372 ± 0.00045 | 1.48089 ± 0.00047 | 1.48673 ± 0.0005 | 1.49266 ± 0.00053
338.15 K | 1.39391 ± 0.00035 | 1.41301 ± 0.00036 | 1.4291 ± 0.00037 | 1.44211 ± 0.00039 | 1.45308 ± 0.00041 | 1.46267 ± 0.00043 | 1.4711 ± 0.00045 | 1.47818 ± 0.00047 | 1.48324 ± 0.0005 | 1.48995 ± 0.00053
348.15 K | 1.39115 ± 0.00036 | 1.41033 ± 0.00036 | 1.42601 ± 0.00037 | 1.43912 ± 0.00039 | 1.45026 ± 0.00041 | 1.45993 ± 0.00043 | 1.46823 ± 0.00045 | 1.47546 ± 0.00047 | 1.4803 ± 0.0005 | 1.48721 ± 0.00053
